{
  "source": "PubChem BioAssay AID2305",
  "about": "(GlaxoSmithKline (GSK), 2010)",
  "note": "“And” between values parts separate entries of the source, which are not always exact repeats. Identical values can stand only once.",
  "data": [
    {"tested_on": "P. falciparum 3D7 growth, pLDH absorbance", "experiment": "P. falciparum 3D7 growth inhibition, dose response, strain 3D7 (AID 2305)", "values": [
      {"smiles": "O=C(NCCN1CCCC1)c1cc(-c2ccc(Cl)c(O)c2)c(-c2ccncc2)o1", "IC50": "1630 nM"},
      {"smiles": "CC(C)(C)c1ccc2nc(-c3ccc(C(=O)NCCCc4ccccc4)cc3)[nH]c2c1", "IC50": "800 nM"},
      {"smiles": "Cc1ccc(C(=O)Nc2cccc([N+](=O)[O-])c2)cc1S(=O)(=O)N1CC(C)CC(C)C1", "note": "(stereo unspecified)", "IC50": "790 nM"},
      {"smiles": "O=C(c1ccc(O)c(-c2cc(Cl)cc(Cl)c2)c1)N(CCO)CCO", "IC50": "910 nM"},
      {"smiles": "COc1ccc(NC(=O)[C@H](Cc2ccccc2)Nc2cc(C)nc(NCCc3ccccn3)n2)cc1", "IC50": "830 nM"},
      {"smiles": "CCCCc1cc(NCc2ccncc2)nc(Nc2ccccc2)n1", "IC50": "840 nM"},
      {"smiles": "COc1ccc(CNc2nc(NCCc3ccccc3)c3cc(OC)c(OC)cc3n2)cc1OC", "IC50": "180 nM"},
      {"smiles": "Cn1nccc1C(=O)NCCNCc1ccc(-c2ccc(-c3nc4ccc(F)cc4[nH]3)cc2)cc1", "IC50": "300 nM"},
      {"smiles": "CSc1c(CNCCCNc2cc(=O)c3ccccc3[nH]2)[nH]c2ccccc12", "IC50": "1120 nM"},
      {"smiles": "CCCCCCCc1c2c(C)c(C(=O)OCC)nc-2cc2n1CC(C)=C2C", "IC50": "1140 nM"},
      {"smiles": "COc1ccc(CN2CCN(CCOC(c3ccc(F)cc3)c3ccc(F)cc3)CC2)c(O)c1", "IC50": "730 nM"},
      {"smiles": "NCCNc1ccc([N+](=O)[O-])cc1C(=O)Nc1cccc(Cl)c1", "IC50": "1260 nM"},
      {"smiles": "O=C(NC(Cc1ccccc1)C(=O)O)c1cc(=O)c2ccccc2o1", "note": "(stereo unspecified)", "IC50": "190 nM"},
      {"smiles": "CC(=O)Nc1cc(C(=O)Nc2cccc(-c3csc(-c4nc5ccccc5[nH]4)c3)c2)ccc1C", "IC50": "460 nM"},
      {"smiles": "CC(C)CCNC(=O)C1Cc2c([nH]c3cc(Cl)ccc23)C2(CCN(CCc3ccccc3)CC2)N1", "note": "(stereo unspecified)", "IC50": "690 nM"},
      {"smiles": "CCC(C)c1cccc(C(C)CC)c1OCCCON1C(N)=NC(N)=NC1(C)C", "note": "(stereo unspecified)", "IC50": "20 nM"},
      {"smiles": "Nc1nc(N)c2cc3ccc(OCc4ccccc4)cc3nc2n1", "IC50": "320 nM"},
      {"smiles": "Cc1ccc(-n2c(Cc3cccc4ccccc34)nnc2SCCC#N)c(C)c1", "IC50": "460 nM"},
      {"smiles": "Cc1ccc(NC(=O)c2ccc3ncccc3c2)cc1OC1CCN(Cc2ccc(F)cc2)CC1", "IC50": "940 nM"},
      {"smiles": "Cc1cnc(NC(=O)c2cn(-c3ccccc3)nc2-c2cccs2)s1", "IC50": "950 nM"},
      {"smiles": "O=S(=O)(NCCN1CCCC1)c1cccc(-c2ccccc2CNC2Cc3ccccc3C2)c1", "IC50": "740 nM"},
      {"smiles": "O=C([C@@H]1CCCCN1c1ccc([N+](=O)[O-])c2ccccc12)N1CCN(c2ncccn2)CC1", "IC50": "200 nM"},
      {"smiles": "O=S(=O)(Nc1cccc(CCN2CCCCC2CCN2CCCC2)c1)c1ccc2ccccc2c1", "note": "(stereo unspecified)", "IC50": "1070 nM"},
      {"smiles": "CCOC(=O)c1cncc(/C=C/c2cc(C)cnc2N)c1", "IC50": "420 nM"},
      {"smiles": "Cc1cc(C(=O)Nc2ccc3c(c2)CCN3C2CCN(Cc3csc4ccccc34)C2)no1", "note": "(stereo unspecified)", "IC50": "120 nM"},
      {"smiles": "O=[N+]([O-])c1ccc2nc(Nc3ccc(Cl)c(Cl)c3)c(Nc3ccc(Cl)c(Cl)c3)nc2c1", "IC50": "790 nM"},
      {"smiles": "CN(C)CC(O)C(O)(c1ccccc1)c1ccc(F)cc1", "note": "(stereo unspecified)", "IC50": "1150 nM"},
      {"smiles": "Cc1cc(=O)c(-c2ccc(Oc3ccc(F)cc3)cc2)c(C)[nH]1", "IC50": "970 nM"},
      {"smiles": "Cc1ccc(NC(=O)c2cc(Br)cc(N3CCCN(C)CC3)c2)cc1F", "IC50": "1340 nM"},
      {"smiles": "CC(=O)Nc1ccc(CNCCc2ccc(NC(=O)c3cc(Cl)cc(Cl)c3)cc2)cc1", "IC50": "680 nM"},
      {"smiles": "O=C(/C=C/c1ccc(Cl)c(Cl)c1)NCCCCCN1CCC(NC(=O)Nc2ccc(C(F)(F)F)cc2)CC1", "IC50": "750 nM"},
      {"smiles": "CN1CCN(CC(=O)Nc2cccc(-c3cccc(-c4nc5ccccc5[nH]4)c3)c2)CC1", "IC50": "1290 nM"},
      {"smiles": "Cc1cc(NCCC(=O)NCCOc2ccccc2)nc(NCCc2ccc(F)cc2)n1", "IC50": "940 nM"},
      {"smiles": "CC[C@H]1CN2CC[C@H]1C[C@@H]2[C@@H](O)c1ccnc2ccccc12", "IC50": "280 nM"},
      {"smiles": "Cc1ccc(Nc2nc(C)cc(Nc3cccc(C#N)c3)n2)cc1", "IC50": "980 nM"},
      {"smiles": "O=c1cc(NCCC(CNCc2cc3ccccc3o2)NCc2cc(Br)cc(Br)c2)[nH]c2ccccc12", "note": "(stereo unspecified)", "IC50": "1210 nM"},
      {"smiles": "O=C(/C=C/c1ccc(Cl)c(Cl)c1)NC1CCC(CN2CCC(c3c[nH]c4cc(C(F)(F)F)ccc34)CC2)CC1", "note": "(stereo unspecified)", "IC50": "900 nM and 280 nM"},
      {"smiles": "COCCOc1cccc(CN2CCC(c3cc4nc(C)cc(C(F)(F)F)n4n3)C2)c1", "note": "(stereo unspecified)", "IC50": "1330 nM"},
      {"smiles": "CC(Oc1ccc(Cl)cc1)C(=O)N(C)C1CCN(CCCCCNC(=O)/C=C/c2ccc(Cl)c(Cl)c2)CC1", "note": "(stereo unspecified)", "IC50": "960 nM"},
      {"smiles": "Nc1nc(N)c2c(CCc3ccc(Cl)c(Cl)c3)cccc2n1", "IC50": "670 nM"},
      {"smiles": "CC(C)NCc1ccc(-c2ccc(NS(=O)(=O)c3cccc4cccnc34)cc2)cc1", "IC50": "810 nM"},
      {"smiles": "Cc1cccc2[nH]c(-c3ccc(-c4cccc(NC(=O)Nc5cccc(C#N)c5)c4)cc3)nc12", "IC50": "540 nM"},
      {"smiles": "Cc1cccc2[nH]c(-c3ccc(-c4cccc(CNC5CCN(C)CC5)c4)s3)nc12", "IC50": "180 nM"},
      {"smiles": "CSC1=NC(=Nc2ccccc2C)C2(CCC(C(C)(C)C)CC2)N1c1ccccc1Cl", "note": "(stereo unspecified)", "IC50": "800 nM"},
      {"smiles": "COc1cc(C=CC(=O)N2CCC(CCN3CCC(c4c[nH]c5ccccc45)CC3)CC2)cc(OC)c1", "IC50": "910 nM"},
      {"smiles": "CCCCCCCN1CC[C@@H](CCCc2ccnc3ccc(OCCCCNC(N)=O)cc23)[C@@H](CC)C1", "IC50": "840 nM"},
      {"smiles": "CCc1ccc(-n2c(NC(=O)c3ccccc3)nc3ccc(S(=O)(=O)NC(C)C(C)C)cc32)cc1", "note": "(stereo unspecified)", "IC50": "930 nM"},
      {"smiles": "CNC(=O)COc1cc(C)c(C2CCN(CCCCNC(=O)c3ccc(-c4ccc(C(F)(F)F)cc4)cc3)CC2)cc1C", "IC50": "870 nM"},
      {"smiles": "COc1c(CNCCCCCCNCc2c(OC)c(OC)c3ccccc3c2OC)c(OC)c2ccccc2c1OC", "IC50": "960 nM"},
      {"smiles": "COc1cc2nc(SCC(C)C)n(CCCn3ccnc3)c(=N)c2cc1OC", "IC50": "610 nM"},
      {"smiles": "N=C(N)c1ccc(NN=Cc2ccc(Oc3ccc(C(=N)N)cc3)cc2)cc1", "IC50": "90 nM"},
      {"smiles": "CN1CCN(Cc2cccc(-c3ccc4c(Nc5ccc(F)cc5Cl)ccnc4c3)c2)CC1", "IC50": "160 nM"},
      {"smiles": "Cc1nc2nc(N)nc(N)c2c(C)c1Cc1ccc(Cl)cc1", "IC50": "220 nM"},
      {"smiles": "O=c1[nH]c(=O)n2c(nc3ccccc32)[nH]1", "IC50": "170 nM"},
      {"smiles": "O=C(NC1CCC(CN2CCC(c3c[nH]c4ccccc34)CC2)CC1)c1csc(-c2cccc(Cl)c2Cl)n1", "note": "(stereo unspecified)", "IC50": "1730 nM"},
      {"smiles": "CN(c1ccccc1C(=O)Nc1ccccc1Oc1ccccc1)S(=O)(=O)c1ccccc1", "IC50": "1150 nM"},
      {"smiles": "CC(=O)Nc1ccc(CN2CCc3ccc(NS(=O)(=O)c4cccc(OCc5ccc(Cl)cc5)c4)cc3CC2)s1", "IC50": "910 nM"},
      {"smiles": "c1cc(-c2cc3ccc(C4=NCCN4)cc3[nH]2)ccc1C1=NCCN1", "IC50": "220 nM"},
      {"smiles": "O=C(CSc1nccn1C1CCCCC1)Nc1cc(C(F)(F)F)ccc1Cl", "IC50": "400 nM"},
      {"smiles": "COc1ccccc1CNC(=O)c1cc(C2CC2)nc2c1cnn2C(C)C", "IC50": "1020 nM"},
      {"smiles": "Cc1cccc2[nH]c(-c3ccc(-c4cccc(CN5CCCC5CN)c4)s3)nc12", "note": "(stereo unspecified)", "IC50": "870 nM"},
      {"smiles": "Cc1c(C)c2c(c(C)c1O)CC[C@](C)(C(=O)N1CCC(CCN3CCC(c4c[nH]c5ccccc45)CC3)CC1)O2", "IC50": "830 nM"},
      {"smiles": "CCc1ccc(CN2CCC(CNC(=O)c3cc(-c4cccc(F)c4)cs3)C2)cc1", "note": "(stereo unspecified)", "IC50": "1360 nM"},
      {"smiles": "CC(C)(C)Oc1ccc(NC(=O)c2ccccc2O)cc1", "IC50": "1010 nM"},
      {"smiles": "CCN(CC)CCCNc1ncc2c(-c3ccc(NC(=O)Nc4cc(C(F)(F)F)ccc4F)c(F)c3)nn(C)c2n1", "IC50": "270 nM"},
      {"smiles": "CN1CCN(c2ccnc3ccc(NC(=O)Nc4ccc(-c5ccncc5)c(C(F)(F)F)c4)cc23)CC1", "IC50": "820 nM"},
      {"smiles": "Cc1cc(S(=O)(=O)N2CCCCC(c3ccc(C(F)(F)F)cc3)=N2)c(Cl)cc1Cl", "IC50": "500 nM"},
      {"smiles": "CCOC(=O)c1ccc(NC(=O)Nc2ccc(-c3cccc(-c4nc5ccc(F)cc5[nH]4)c3)cc2)cc1", "IC50": "120 nM"},
      {"smiles": "COc1ccc2[nH]cc(C3=CCN(Cc4ccccc4)CC3)c2c1", "IC50": "570 nM"},
      {"smiles": "NC(N)=NCCCN(Cc1ccccc1)c1ccc(Cl)cc1", "IC50": "560 nM"},
      {"smiles": "COc1ccc(Nc2nccc(NCCNC(=O)Nc3cc(C)ccc3C)n2)cc1", "IC50": "1050 nM"}
    ]}
  ]
}
